Test results published in patent US10975056B2 (GlaxoSmithKline Intellectual Property Development Limited, priority 2016, dated 2021).
Structures can show the parent of a compound that is named as a salt. Where two headings read alike, the source gives them in different places.

Columns and labels:
DNMT1 = DNMT1 (Homo sapiens, UniProt P26358); assay: DNMT1 biochemical activity, breaklight assay and/or SPA assay
[1] = tested on: erythroid progenitor cells (EPCs); assay: Fetal hemoglobin (HbF) ELISA in day 7 erythroid progenitor cells; assay type: cell-based, human; settings: Homo sapiens, Erythroid progenitor cell, HbF ELISA, day 7 EPCs, 5 days; read-out: EPC ELISA (pEC50 category) (converted);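 note: for fetal hemoglobin induction normalized to vehicle-treated cells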
Outline: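 Day 7 EPCs from human bone marrow CD34+ cells were plated at 1,000 cells/well in media with 3 U/mL rhEPO. They were exposed to a 22-point dilution ([…]) for 5 days at 37 °C. Lysate HbF was measured by sandwich ELISA (OD450) and normalized to DMSO control wells.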

[2] = binned activity in either the breaklight or the SPA assay, read-out: DNMT1 BioChemical (pIC50 category) (converted)
[3] = binned activity in either the breaklight or the SPA assay
[4] = breaklight assay and/or SPA assay, repeated experimental runs, read-out: average pIC50 against DNMT1 (converted)

Chain of DNMT1 (P26358 whole entry, looked up): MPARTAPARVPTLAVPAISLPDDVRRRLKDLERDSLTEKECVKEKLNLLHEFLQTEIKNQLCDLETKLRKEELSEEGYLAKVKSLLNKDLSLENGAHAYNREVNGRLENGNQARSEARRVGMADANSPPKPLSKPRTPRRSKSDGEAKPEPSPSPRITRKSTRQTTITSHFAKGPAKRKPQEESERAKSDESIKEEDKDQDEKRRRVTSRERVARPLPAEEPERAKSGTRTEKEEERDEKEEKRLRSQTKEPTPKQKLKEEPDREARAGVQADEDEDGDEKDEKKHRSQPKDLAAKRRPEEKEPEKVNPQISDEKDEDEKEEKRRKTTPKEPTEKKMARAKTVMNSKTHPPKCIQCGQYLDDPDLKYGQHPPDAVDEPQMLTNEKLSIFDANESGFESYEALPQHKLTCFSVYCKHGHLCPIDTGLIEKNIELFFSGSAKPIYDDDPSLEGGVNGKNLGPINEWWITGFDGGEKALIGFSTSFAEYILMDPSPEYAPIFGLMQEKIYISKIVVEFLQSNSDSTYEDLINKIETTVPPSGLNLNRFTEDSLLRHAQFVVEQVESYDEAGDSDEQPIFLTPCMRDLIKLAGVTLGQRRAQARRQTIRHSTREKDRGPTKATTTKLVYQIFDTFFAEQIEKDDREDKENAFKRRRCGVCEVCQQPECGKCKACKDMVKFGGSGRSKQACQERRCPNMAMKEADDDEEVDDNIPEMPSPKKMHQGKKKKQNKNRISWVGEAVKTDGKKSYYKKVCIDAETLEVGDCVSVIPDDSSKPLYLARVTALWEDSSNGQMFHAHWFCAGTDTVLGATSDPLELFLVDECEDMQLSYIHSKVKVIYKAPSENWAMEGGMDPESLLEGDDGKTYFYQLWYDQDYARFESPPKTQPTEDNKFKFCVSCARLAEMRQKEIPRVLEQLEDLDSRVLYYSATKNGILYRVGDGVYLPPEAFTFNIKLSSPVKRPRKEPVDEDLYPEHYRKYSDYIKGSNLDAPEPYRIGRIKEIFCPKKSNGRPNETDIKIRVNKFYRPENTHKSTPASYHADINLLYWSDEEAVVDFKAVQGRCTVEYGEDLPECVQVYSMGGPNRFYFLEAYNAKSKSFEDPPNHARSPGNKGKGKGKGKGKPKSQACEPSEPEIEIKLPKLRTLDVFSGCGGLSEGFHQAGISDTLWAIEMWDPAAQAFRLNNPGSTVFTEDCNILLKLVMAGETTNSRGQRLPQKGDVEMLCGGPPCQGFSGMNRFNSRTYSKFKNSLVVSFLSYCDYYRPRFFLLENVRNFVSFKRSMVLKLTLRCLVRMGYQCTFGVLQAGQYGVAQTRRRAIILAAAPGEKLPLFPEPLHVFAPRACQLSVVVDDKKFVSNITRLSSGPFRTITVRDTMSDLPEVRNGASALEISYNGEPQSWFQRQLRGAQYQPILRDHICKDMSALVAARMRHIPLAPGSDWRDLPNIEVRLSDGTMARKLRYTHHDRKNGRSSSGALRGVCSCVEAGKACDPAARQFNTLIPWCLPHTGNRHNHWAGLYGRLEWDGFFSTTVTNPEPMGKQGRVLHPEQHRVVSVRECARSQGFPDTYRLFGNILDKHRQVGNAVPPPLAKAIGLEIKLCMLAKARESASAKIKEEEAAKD

Question: With `CCc1c(C#N)c(SC(C(N)=O)c2ccccc2)nc(N2CCC(N3C(=O)CNC3=O)CC2)c1C#N` (centres unmarked) [Example 250, 2-((3,5-Dicyano-6-(4-(2,5-dioxoimidazolidin-1-yl)piperidin-1-yl)-4-ethylpyridin-2-yl)thio)-2-phenylacetamide] as the molecule, how does the IC50 (DNMT1; [2]) read?
Answer: 0.316 to 1 µM

Question: And the EC50 [1]?
Answer: 1 to 31.6 µM

Question: Which results are given for `CCc1c(C#N)c(SC(C(N)=O)c2ccccc2)nc(N2CCC(N3CCN(C)CC3)CC2)c1C#N` (centres unmarked) [Example 450, 2-((3,5-dicyano-4-ethyl-6-(4-(4-methylpiperazin-1-yl)piperidin-1-yl)pyridin-2-yl)thio)-2-phenylacetamide]?
Answer: DNMT1 BioChemical (pIC50 category) (DNMT1; [3]): D (Category D: ≥6.5); EC50 [1]: < 0.316 µM

Question: With `CCc1c(C#N)c(SC(C(N)=O)c2ccccc2)nc(N2CCC[C@H](NC)C2)c1C#N` (stereo partly drawn) [Example 607, 2-((3,5-dicyano-4-ethyl-6-((S)-3-(methylamino)piperidin-1-yl)pyridin-2-yl)thio)-2-phenylacetamide] as the molecule, how does the “DNMT1 BioChemical (pIC50 category)” value (DNMT1; [3]) read?
Answer: D (Category D: ≥6.5)

Question: And the EC50 [1]?
Answer: < 0.316 µM

Question: What does the source list for `CCc1c(C#N)c(SC(C(N)=O)c2ccccc2)nc(N2CCC(C)(NCCO)CC2)c1C#N` (centres unmarked) [Example 643, 2-((3,5-dicyano-4-ethyl-6-(4-((2-hydroxyethyl)amino)-4-methylpiperidin-1-yl)pyridin-2-yl)thio)-2-phenylacetamide]?
Answer: DNMT1 BioChemical (pIC50 category) (DNMT1; [3]): D (Category D: ≥6.5); EC50 [1]: < 0.316 µM

Question: `CCc1c(C#N)c(SCc2ccc(CNC(C)=O)cc2)nc(N(C)Cc2nnc[nH]2)c1C#N` [Example 349, N-(4-(((6-(((4H-1,2,4-Triazol-3-yl)methyl)(methyl)amino)-3,5-dicyano-4-ethylpyridin-2-yl)thio)methyl)benzyl)acetamide] was tested. Which IC50 (DNMT1; [2]) did it give?
Answer: 0.316 to 1 µM

Question: And the EC50 [1]?
Answer: 1 to 31.6 µM

Question: Which IC50 (DNMT1; [2]) does the source give for `CCc1c(C#N)c(SC(C(N)=O)c2ccccc2)nc(N2CCC(=O)N(C)CC2)c1C#N` (centres unmarked) [Example 111, 2-{[3,5-Dicyano-4-ethyl-6-(4-methyl-5-oxo-1,4-diazepan-1-yl)pyridin-2-yl]sulfanyl}-2-phenylacetamide] here?
Answer: 0.316 to 1 µM

Question: What about the EC50 [1] of the same molecule?
Answer: < 0.316 µM

Question: Which results are given for `CCc1c(C#N)c(SCc2ccc(CNC(=O)CNC(=O)OC(C)(C)C)cc2)nc(N2CCCN(C)CC2)c1C#N` [Example 78, tert-Butyl (2-((4-(((3,5-dicyano-4-ethyl-6-(4-methyl-1,4-diazepan-1-yl)pyridin-2-yl)thio)methyl)benzyl)amino)-2-oxoethyl)carbamate]?
Answer: IC50 (DNMT1; [2]): 0.316 to 1 µM; IC50 (DNMT1; [4]): ≥ 1 µM; EC50 [1]: > 31.6 µM

Question: With `CCc1c(C#N)c(SCc2ccc(NC(=O)OC(C)(C)C)cc2)nc(N2CCCN(C)CC2)c1C#N` [Example 296, tert-Butyl (4-(((3,5-dicyano-4-ethyl-6-(4-methyl-1,4-diazepan-1-yl)pyridin-2-yl)thio)methyl)phenyl)carbamate] as the molecule, how does the IC50 (DNMT1; [2]) read?
Answer: 0.316 to 1 µM

Question: And the EC50 [1]?
Answer: > 31.6 µM

Question: `CCc1c(C#N)c(SC(C(N)=O)c2ccccc2)nc(N2CCC(NCCOC)C(F)C2)c1C#N` (centres unmarked) [Example 510, 2((3,5-dicyano-4-ethyl-6-(3-fluoro-4-((2-methoxyethyl)amino)piperidin-1-yl)pyridin-2-yl)thio)-2-phenylacetamide] was tested. Which “DNMT1 BioChemical (pIC50 category)” value (DNMT1; [3]) did it give?
Answer: D (Category D: ≥6.5)

Question: And the EC50 [1]?
Answer: < 0.316 µM

Question: How did the IC50 (DNMT1; [2]) turn out when `CCc1c(C#N)c(SC(C(N)=O)c2ccccc2)nc(N2CCC(OP(=O)(O)O)CC2)c1C#N` (centres unmarked) [Example 155, 1-(6-((2-Amino-2-oxo-1-phenylethyl)thio)-3,5-dicyano-4-ethylpyridin-2-yl)piperidin-4-yl dihydrogen phosphate] was run?
Answer: 1 to 31.6 µM

Question: And the EC50 [1]?
Answer: > 31.6 µM

Question: What does the source list for `CCc1c(C#N)c(SCc2ccc(CN)cc2)nc(N(C)C)c1C#N` [Example 272, 2-((4-(Aminomethyl)benzyl)thio)-6-(dimethylamino)-4-ethylpyridine-3,5-dicarbonitrile, Hydrochloride]?
Answer: IC50 (DNMT1; [2]): 1 to 31.6 µM; EC50 [1]: > 31.6 µM

Question: Which “DNMT1 BioChemical (pIC50 category)” value (DNMT1; [3]) does the source give for `CCc1c(C#N)c(SC(C(N)=O)c2ccccc2)nc(N(C)CC(=O)N2CCC2)c1C#N` (centres unmarked) [Example 631, 2-((6-((2-(azetidin-1-yl)-2-oxoethyl)(methyl)amino)-3,5-dicyano-4-ethylpyridin-2-yl)thio)-2-phenylacetamide] here?
Answer: D (Category D: ≥6.5)

Question: What about the EC50 [1] of the same molecule?
Answer: < 0.316 µM

Question: Which results are given for `CCc1c(C#N)c(SC(C(N)=O)c2ccccc2)nc(N(C)CC(=O)NCCCO)c1C#N` (centres unmarked) [Example 677, 2-((6-((2-amino-2-oxo-1-phenylethyl)thio)-3,5-dicyano-4-ethylpyridin-2-yl)(methyl)amino)-N-(3-hydroxypropyl)acetamide]?
Answer: DNMT1 BioChemical (pIC50 category) (DNMT1; [3]): D (Category D: ≥6.5); EC50 [1]: 0.316 to 1 µM

Question: `CCc1c(C#N)c(SC(C(N)=O)c2ccccc2)nc(N2CCC(n3ccnc3)CC2)c1C#N` (centres unmarked) [Example 172, 2-((6-(4-(1H-Imidazol-1-yl)piperidin-1-yl)-3,5-dicyano-4-ethylpyridin-2-yl)thio)-2-phenylacetamide] was tested. Which IC50 (DNMT1; [2]) did it give?
Answer: 1 to 31.6 µM

Question: And the EC50 [1]?
Answer: < 0.316 µM

Question: What does the source list for `CCc1c(C#N)c(SC(C(N)=O)c2cc(C)ccn2)nc(N2CCCN(C)CC2)c1C#N` (centres unmarked) [Example 208]?
Answer: IC50 (DNMT1; [2]): 0.316 to 1 µM; EC50 [1]: 0.316 to 1 µM

Question: For `CCc1c(C#N)c(SC(C(N)=O)c2ccccc2)nc(N2CCC(O)(CN)CC2)c1C#N` (centres unmarked) [Example 243, 2-((6-(4-(Aminomethyl)-4-hydroxypiperidin-1-yl)-3,5-dicyano-4-ethylpyridin-2-yl)thio)-2-phenylacetamide, Trifluoroacetic Acid Salt], which “DNMT1 BioChemical (pIC50 category)” value (DNMT1; [3]) is on record?
Answer: D (Category D: ≥6.5)

Question: What about the EC50 [1] of the same molecule?
Answer: 0.316 to 1 µM

Question: Which IC50 (DNMT1; [2]) does the source give for `CCc1c(C#N)c(SC(C(N)=O)c2ccccc2)nc(N2CCN(Cc3cn[nH]c3)CC2)c1C#N` (centres unmarked) [Example 187, 2-((6-(4-((1H-Pyrazol-4-yl)methyl)piperazin-1-yl)-3,5-dicyano-4-ethylpyridin-2-yl)thio)-2-phenylacetamide] here?
Answer: 0.316 to 1 µM

Question: And the EC50 [1]?
Answer: 1 to 31.6 µM

Question: Which IC50 (DNMT1; [2]) does the source give for `CCc1c(C#N)c(SC(C(N)=O)c2ccccc2)nc(N2CCN(Cc3ccc[nH]3)CC2)c1C#N` (centres unmarked) [Example 177, 2-((6-(4-((1H-Pyrrol-2-yl)methyl)piperazin-1-yl)-3,5-dicyano-4-ethylpyridin-2-yl)thio)-2-phenylacetamide] here?
Answer: 0.316 to 1 µM

Question: And the EC50 [1]?
Answer: 1 to 31.6 µM

Question: `CCc1c(C#N)c(SC(C(N)=O)c2ccccc2)nc(N(C)Cc2cnc[nH]2)c1C#N` (centres unmarked) [Example 365] was tested. Which IC50 (DNMT1; [2]) did it give?
Answer: 0.316 to 1 µM

Question: And the EC50 [1]?
Answer: 1 to 31.6 µM

Question: What does the source list for `CCc1c(C#N)c(SCc2ccc(N(C)S(C)(=O)=O)cc2)nc(N2CCC(NC(C)C)CC2)c1C#N` [Example 556, N-(4-(((3,5-dicyano-4-ethyl-6-(4-(isopropylamino)piperidin-1-yl)pyridin-2-yl)thio)methyl)phenyl)-N-methylmethanesulfonamide]?
Answer: DNMT1 BioChemical (pIC50 category) (DNMT1; [3]): D (Category D: ≥6.5); EC50 [1]: < 0.316 µM

Question: For `CCc1c(C#N)c(SC(C(N)=O)c2ccc(F)cc2)nc(N2CCC(N)CC2)c1C#N` (centres unmarked) [Example 522, 2-((6-(4-aminopiperidin-1-yl)-3,5-dicyano-4-ethylpyridin-2-yl)thio)-2-(4-fluorophenyl)acetamide hydrochloride], which “DNMT1 BioChemical (pIC50 category)” value (DNMT1; [3]) is on record?
Answer: D (Category D: ≥6.5)

Question: And the EC50 [1]?
Answer: < 0.316 µM

Question: Which results are given for `CCc1c(C#N)c(SC(C(N)=O)c2ccccc2)nc(N2CCC(C(N)=O)CC2)c1C#N` (centres unmarked) [Example 217, 1-(6-((2-Amino-2-oxo-1-phenylethyl)thio)-3,5-dicyano-4-ethylpyridin-2-yl)piperidine-4-carboxamide]?
Answer: IC50 (DNMT1; [2]): 0.316 to 1 µM; EC50 [1]: 1 to 31.6 µM

Question: Which “DNMT1 BioChemical (pIC50 category)” value (DNMT1; [3]) does the source give for `CCc1c(C#N)c(S[C@@H](C(N)=O)c2ccccc2)nc(N2CCC(N3CCCC3)CC2)c1C#N` [Example 405, (R)-2-((3,5-Dicyano-4-ethyl-6-(4-(pyrrolidin-1-yl)piperidin-1-yl)pyridin-2-yl)thio)-2-phenylacetamide] here?
Answer: D (Category D: ≥6.5)

Question: And the EC50 [1]?
Answer: < 0.316 µM

Question: Which “DNMT1 BioChemical (pIC50 category)” value (DNMT1; [3]) does the source give for `CCc1c(C#N)c(SC(C(N)=O)c2ccccc2)nc(N2CCC3(CCN(C)C3)CC2)c1C#N` (centres unmarked) [Example 215, 2-((3,5-Dicyano-4-ethyl6-(2-methyl-2,8-diazaspiro[4.5]decan-8-yl)pyridin-2-yl)thio)-2-phenylacetamide] here?
Answer: D (Category D: ≥6.5)

Question: And the EC50 [1]?
Answer: < 0.316 µM

Question: Which IC50 (DNMT1; [2]) does the source give for `CCNC(=O)NCc1ccc(CSc2nc(N3CCCN(C)CC3)c(C#N)c(CC)c2C#N)cc1` [Example 99, 1-(4-(((3,5-Dicyano-4-ethyl-6-(4-methyl-1,4-diazepan-1-yl)pyridin-2-yl)thio)methyl)benzyl)-3-ethylurea] here?
Answer: 0.316 to 1 µM

Question: What about the IC50 (DNMT1; [4]) of the same molecule?
Answer: 0.316 to 1 µM

Question: And the EC50 [1]?
Answer: 1 to 31.6 µM

Question: Which results are given for `CCc1c(C#N)c(SC(C(N)=O)c2ccc(F)cc2)nc(N(C)C)c1C#N` (centres unmarked) [Example 198, 2-((3,5-Dicyano-6-(dimethylamino)-4-ethylpyridin-2-yl)thio)-2-(4-fluorophenyl)acetamide]?
Answer: DNMT1 BioChemical (pIC50 category) (DNMT1; [3]): D (Category D: ≥6.5); EC50 [1]: 0.316 to 1 µM

Question: Which results are given for `CCc1c(C#N)c(SC(C(N)=O)c2ccccc2)nc(N(C)CCN2CC[C@H](N(C)C)C2)c1C#N` (stereo partly drawn) [Example 517, 2-((3,5-dicyano-6-((2-((S)-3-(dimethylamino)pyrrolidin-1-yl)ethyl)(methyl)amino)-4-ethylpyridin-2-yl)thio)-2-phenylacetamide]?
Answer: DNMT1 BioChemical (pIC50 category) (DNMT1; [3]): D (Category D: ≥6.5); EC50 [1]: < 0.316 µM

Question: For `N#Cc1c(SC(C(N)=O)c2ccccc2)nc(N2CC(NC(=O)CN)C2)c(C#N)c1C1CC1` (centres unmarked) [Example 610, 2-amino-N-(1-(6-((2-amino-2-oxo-1-phenylethyl)thio)-3,5-dicyano-4-cyclopropylpyridin-2-yl)azetidin-3-yl)acetamide], which “DNMT1 BioChemical (pIC50 category)” value (DNMT1; [3]) is on record?
Answer: D (Category D: ≥6.5)

Question: What about the EC50 [1] of the same molecule?
Answer: 1 to 31.6 µM

Question: What does the source list for `CCc1nc(SC(C(N)=O)c2ccccc2)c(C#N)c(CC)c1C#N` (centres unmarked) [Example 351]?
Answer: IC50 (DNMT1; [2]): 0.316 to 1 µM; EC50 [1]: > 31.6 µM

Question: Which results are given for `CCc1c(C#N)c(SC(C(N)=O)c2ccccc2)nc(N2CC(OC(=O)C(N)C(C)C)C2)c1C#N` (stereo in doubt) [Example 333, (2R)-1-(6-((2-Amino-2-oxo-1-phenylethyl)thio)-3,5-dicyano-4-ethylpyridin-2-yl)azetidin-3-yl 2-amino-3-methylbutanoate]?
Answer: DNMT1 BioChemical (pIC50 category) (DNMT1; [3]): D (Category D: ≥6.5); EC50 [1]: 1 to 31.6 µM
